Assay results as given in paper PMC7979765, “trans-Translation inhibitors bind to a novel site on the ribosome and clear Neisseria gonorrhoeae in vivo” (Nature Communications, 2021).
Converted amounts (≈) assume the structure as drawn. “And” between values parts separate entries of the source, which are not always exact repeats. Equal values may be shown once. Read-outs that look alike come from different tables or passages of the source.

Tests used:
Solubility (formulated) = type: physicochemical
Pseudomonas aeruginosa = test: MIC, microbroth dilution; type: cell-based
[1] = Mammalian cell cytotoxicity (CC50); type: cell-based, human; settings: human, HeLa cells (ATCC CCL-2)
Experimental: (§1) The half maximal cytotoxic concentration (CC50) of each compound against HeLa cells (ATCC CCL-2) was measured as previously described. […] The mean values for each biological replicate were averaged, and the CC50 was determined using a 4-parameter nonlinear curve fitting algorithm (GraphPad Prism). The average of the CC50s from two biological replicates was calculated and reported.

HeLa cells = test: Mammalian cell cytotoxicity (CC50); type: cell-based, human; settings: listed as MBX-3535; for NORMALIZED DATA (Fraction DMSO Control): HeLa, replicates
Experimental: as §1

Neisseria gonorrhoeae = test: MIC, microbroth dilution, G77L medium; type: cell-based; settings: Neisseria gonorrhoeae
[2] = HeLa cytotoxicity, one value per replicate

Question: Which Solubility (Solubility (formulated)) does the source give for `O=C(Nc1nnc(-c2ccc(F)cc2)o1)c1ccc(Cl)cc1` [KKL-35, 4-chloro-N-(5-(4-fluorophenyl)-1,3,4-oxadiazol-2-yl)benzamide] here?
Answer: 1000 µg/mL (≈ 3150 µM)

Question: And the MIC (Pseudomonas aeruginosa; Pseudomonas aeruginosa ATCC 27853, replicates)?
Answer: ≥32 µg/mL

Question: What about the MIC (Pseudomonas aeruginosa; Pseudomonas aeruginosa, ATCC27853, Pseudomonas aeruginosa ATCC 27853, replicates, read-out: MIC) of the same compound?
Answer: ≥ 32 µg/mL

Question: What about the MIC (Pseudomonas aeruginosa; Pseudomonas aeruginosa, ATCC27853, strain ATCC 27853, read-out: MIC) of the same compound?
Answer: > 32 µg/mL

Question: And the CC50 [1, 2]?
Answer: 30.5 µM

Question: What about the CC50 ([1]; half-maximal cytotoxic concentration against HeLa cells) of the same compound?
Answer: > 100 µM

Question: What about the CC50 (HeLa cells; [2]) of the same compound?
Answer: 30.6 µM and 26 µM and 22 µM and 29.1 µM and 34.1 µM

Question: And the “NORMALIZED DATA (Fraction DMSO Control)” value (HeLa cells; [CMPD] 0.78125 µM)?
Answer: 0.9983 Fraction DMSO Control and 0.9009 Fraction DMSO Control and 0.8841 Fraction DMSO Control and 1.049 Fraction DMSO Control and 0.992 Fraction DMSO Control and 0.9968 Fraction DMSO Control

Question: And the “NORMALIZED DATA (Fraction DMSO Control)” value (HeLa cells; [CMPD] 1.5625 µM)?
Answer: 0.9916 Fraction DMSO Control and 0.9029 Fraction DMSO Control and 0.888 Fraction DMSO Control and 1.05 Fraction DMSO Control and 0.9984 Fraction DMSO Control and 0.9932 Fraction DMSO Control

Question: What about the “NORMALIZED DATA (Fraction DMSO Control)” value (HeLa cells; [CMPD] 3.125 µM) of the same compound?
Answer: 0.9963 Fraction DMSO Control and 0.9267 Fraction DMSO Control and 0.8661 Fraction DMSO Control and 1.071 Fraction DMSO Control and 1.023 Fraction DMSO Control and 1.002 Fraction DMSO Control

Question: What about the “NORMALIZED DATA (Fraction DMSO Control)” value (HeLa cells; [CMPD] 6.25 µM) of the same compound?
Answer: 1.002 Fraction DMSO Control and 0.9334 Fraction DMSO Control and 0.856 Fraction DMSO Control and 1.09 Fraction DMSO Control and 1.008 Fraction DMSO Control and 1.022 Fraction DMSO Control

Question: And the “NORMALIZED DATA (Fraction DMSO Control)” value (HeLa cells; [CMPD] 12.5 µM)?
Answer: 0.9694 Fraction DMSO Control and 0.9248 Fraction DMSO Control and 0.8736 Fraction DMSO Control and 1.069 Fraction DMSO Control and 1.012 Fraction DMSO Control and 1.014 Fraction DMSO Control

Question: What about the “NORMALIZED DATA (Fraction DMSO Control)” value (HeLa cells; [CMPD] 25 µM) of the same compound?
Answer: 0.8994 Fraction DMSO Control and 0.8509 Fraction DMSO Control and 0.795 Fraction DMSO Control and 0.4926 Fraction DMSO Control and 0.6416 Fraction DMSO Control and 0.799 Fraction DMSO Control

Question: What about the “NORMALIZED DATA (Fraction DMSO Control)” value (HeLa cells; [CMPD] 50 µM) of the same compound?
Answer: 0.6292 Fraction DMSO Control and 0.6178 Fraction DMSO Control and 0.5987 Fraction DMSO Control and 0.3592 Fraction DMSO Control and 0.3855 Fraction DMSO Control and 0.3659 Fraction DMSO Control

Question: And the “NORMALIZED DATA (Fraction DMSO Control)” value (HeLa cells; [CMPD] 100 µM)?
Answer: 0.6116 Fraction DMSO Control and 0.6041 Fraction DMSO Control and 0.6139 Fraction DMSO Control and 0.191 Fraction DMSO Control and 0.1882 Fraction DMSO Control and 0.2089 Fraction DMSO Control

Question: And the MIC (Neisseria gonorrhoeae; ATCC49226, Neisseria gonorrhoeae ATCC 49226, source data, individual replicates, read-out: MIC)?
Answer: 0.124 µg/mL (≈ 0.39 µM)

Question: And the MIC (Neisseria gonorrhoeae; ATCC49226, strain ATCC 49226, geomean of replicates, read-out: MIC GEOMEAN)?
Answer: 0.124 µg/mL (≈ 0.39 µM)

Question: And the MIC (Neisseria gonorrhoeae; ATCC49226, strain ATCC 49226, replicates 1-3, read-out: MIC)?
Answer: 0.124 µg/mL (≈ 0.39 µM)

Question: And the MIC (Neisseria gonorrhoeae; ATCC49226, strain ATCC 49226, type strain, read-out: MIC)?
Answer: 0.12 µg/mL (≈ 0.378 µM)

Question: And the MIC (Neisseria gonorrhoeae; ATCC49226, strain MMX ATCC 49226, broth dilution by Micromyx, read-out: MIC)?
Answer: 0.25 µg/mL (≈ 0.787 µM)

Question: And the MIC (Neisseria gonorrhoeae; ATCC49226, strain MMX ATCC 49226, single data point, Micromyx, read-out: MIC)?
Answer: 0.25 µg/mL (≈ 0.787 µM)

Question: And the MIC (Neisseria gonorrhoeae; ATCC700719, strain ATCC 700719, SPT, read-out: MIC)?
Answer: 0.25 µg/mL (≈ 0.787 µM)

Question: What about the MIC (Neisseria gonorrhoeae; ATCC700719, strain ATCC 700719, geomean of replicates, read-out: MIC GEOMEAN) of the same compound?
Answer: 0.248 µg/mL (≈ 0.781 µM)

Question: And the MIC (Neisseria gonorrhoeae; ATCC700719, strain ATCC 700719, replicates 1-3, read-out: MIC)?
Answer: 0.248 µg/mL (≈ 0.781 µM)

Question: What about the MIC (Neisseria gonorrhoeae; ATCC700825, strain ATCC 700825, STR, read-out: MIC) of the same compound?
Answer: 0.06 µg/mL (≈ 0.189 µM)

Question: What about the MIC (Neisseria gonorrhoeae; ATCC700825, strain ATCC 700825, geomean of replicates, read-out: MIC GEOMEAN) of the same compound?
Answer: 0.062 µg/mL (≈ 0.195 µM)

Question: And the MIC (Neisseria gonorrhoeae; ATCC700825, strain ATCC 700825, replicates 1-3, read-out: MIC)?
Answer: 0.062 µg/mL (≈ 0.195 µM)

Question: And the MIC (Neisseria gonorrhoeae; BAA1846, strain BAA-1846, TET, read-out: MIC)?
Answer: 0.06 µg/mL (≈ 0.189 µM)

Question: And the MIC (Neisseria gonorrhoeae; BAA1846, strain BAA-1846, geomean of replicates, read-out: MIC GEOMEAN)?
Answer: 0.062 µg/mL (≈ 0.195 µM)

Question: What about the MIC (Neisseria gonorrhoeae; BAA1846, strain BAA-1846, replicates 1-3, read-out: MIC) of the same compound?
Answer: 0.062 µg/mL (≈ 0.195 µM)

Question: And the MIC (Neisseria gonorrhoeae; strain H041, Fig. 1B, read-out: N. gonorrhoeae H041 MIC)?
Answer: 0.12 µg/mL (≈ 0.378 µM)

Question: What about the MIC (Neisseria gonorrhoeae; strain HO41, PEN, TET, CFM, CRO, LVX, read-out: MIC) of the same compound?
Answer: 0.25 µg/mL (≈ 0.787 µM)

Question: What about the MIC (Neisseria gonorrhoeae; strain HO41, geomean of replicates, read-out: MIC GEOMEAN) of the same compound?
Answer: 0.248 µg/mL (≈ 0.781 µM)

Question: What about the MIC (Neisseria gonorrhoeae; strain HO41, replicates 1-3, read-out: MIC) of the same compound?
Answer: 0.248 µg/mL (≈ 0.781 µM)

Question: What about the MIC (Neisseria gonorrhoeae; strain MMX 6744, broth dilution by Micromyx, read-out: MIC) of the same compound?
Answer: 0.13 µg/mL (≈ 0.409 µM)

Question: What about the MIC (Neisseria gonorrhoeae; strain MMX 6744, single data point, Micromyx, read-out: MIC) of the same compound?
Answer: 0.13 µg/mL (≈ 0.409 µM)

Question: What about the MIC (Neisseria gonorrhoeae; strain MMX 6746, CIP, by Micromyx, read-out: MIC) of the same compound?
Answer: 0.13 µg/mL (≈ 0.409 µM)

Question: What about the MIC (Neisseria gonorrhoeae; strain MMX 6746, single data point, Micromyx, read-out: MIC) of the same compound?
Answer: 0.13 µg/mL (≈ 0.409 µM)

Question: And the MIC (Neisseria gonorrhoeae; strain MMX 6752, TET, by Micromyx, read-out: MIC)?
Answer: 0.25 µg/mL (≈ 0.787 µM)

Question: And the MIC (Neisseria gonorrhoeae; strain MMX 6752, single data point, Micromyx, read-out: MIC)?
Answer: 0.25 µg/mL (≈ 0.787 µM)

Question: What about the MIC (Neisseria gonorrhoeae; strain MMX 6753, by Micromyx, read-out: MIC) of the same compound?
Answer: 0.06 µg/mL (≈ 0.189 µM)

Question: What about the MIC (Neisseria gonorrhoeae; strain MMX 6753, single data point, Micromyx, read-out: MIC) of the same compound?
Answer: 0.06 µg/mL (≈ 0.189 µM)

Question: And the MIC (Neisseria gonorrhoeae; strain MMX 6757, by Micromyx, read-out: MIC)?
Answer: 0.06 µg/mL (≈ 0.189 µM)

Question: What about the MIC (Neisseria gonorrhoeae; strain MMX 6757, single data point, Micromyx, read-out: MIC) of the same compound?
Answer: 0.06 µg/mL (≈ 0.189 µM)

Question: What about the MIC (Neisseria gonorrhoeae; strain MMX 6758, by Micromyx, read-out: MIC) of the same compound?
Answer: 0.13 µg/mL (≈ 0.409 µM)

Question: And the MIC (Neisseria gonorrhoeae; strain MMX 6758, single data point, Micromyx, read-out: MIC)?
Answer: 0.13 µg/mL (≈ 0.409 µM)
